Tests used:
[1] = tested on: 16-hour salivary biofilm on pellicle coated hydroxyapatite pegs; test: Prevention assay: prevention of bacterial attachment to pellicle coated hydroxyapatite pegs, ATP bioluminescence; format: cell-based; conditions: for prevention of bacterial attachment in alcohol free full formulations: Table 15 formulations, water as the only solvent; for prevention of bacterial attachment in alcohol-free full formulations: Table 17 formulations, water and propylene glycol as solvents; for ability to prevent bacterial attachment / preventing bacterial attachment the best: simple solution solvent base formulas (Table 11)
Protocol: The formulations in Examples 2-4, 6, 8 and 9 were prepared and test for prevention of bacterial attachment using the prevention assay. In this assay hydroxyapatite-coated polystyrene peg plate (96 pegs, N=8 per group) was exposed to saliva for one minute to form a pellicle at a temperature of 35 C. Then, for each formulation, eight pegs (N=8) were pre-treated for ten minutes with the formulation using an orbital shaker set to 500 RPM at room temperature. As a negative control, eight pegs (N=8) were pre-treated for ten minutes with sterile water. Next, a 16-hour salivary biofilm was grown on these polystyrene peg plates at a temperature of 35 C.
After all treatments were complete, the biofilm from each peg was neutralized and rinsed. The biofilm was harvested via sonication using a Q-Sonica Q700 Ultrasonic Liquid Processor with 431MP4-00 microplate horn Damper and 0.5:1 reverse gain booster (Q-Sonica, Newtown, Conn.). Using a Celsis Rapid Detection RapiScreen kit (Celsis International PLC, Chicago, Ill.), the bacteria were lysed with Celsis Luminex and then the adenosine triphosphate (ATP) from the lysed bacteria was measured using the bioluminescence marker Celcis Luminate and a Centro LB 960 Microplate Luminometer supplied by Berthold Technologies (Wildbad, Germany). Data were reported in log RLU (relative light units) where decreasing log RLUs indicated fewer viable bacteria remained on the biofilm substrate. The log RLUs for the prevention assay are shown on Tables 2, 4, 6, 10, 14, and 16.

[2] = tested on: S. mutans biofilm; test: S. mutans single species kill assay (in-vitro biofilm model); format: cell-based; conditions: simple solution formulas (Table 13), 30 second treatment
Protocol: The formulations listed in Example 7 were prepared and tested using an in-vitro single species S. mutans biofilm model. A 24-hour S. mutans biofilm is grown on a polystyrene peg plate (96 pegs, N=6 per test group). The pegs were subsequently treated for thirty seconds with each of formulations H and I, as well as positive and negative controls. The treatment is applied as a single thirty (30) second treatment. The positive control is a commercially available essential oil mouth rinse. The negative control is sterile water. After treatment the biofilm is neutralized and rinsed. The biofilm is harvested via sonication using a Misonix Ultrasonic Liquid Processor (Farmingdale, N.Y.). Using a Celsis Rapid Detection RapiScreen kit (Celsis International PLC, Chicago), the bacteria are lysed with Celsis Luminex and then the adenosine triphosphate (ATP) from the lysed bacteria is measured using the bioluminescence marker LB960 Microplate Luminometer supplied by Berthold (Wildbad, Germany). Data are reported in log RLU (relative light units) where decreasing log RLUs indicates fewer viable bacteria remaining on the biofilm substrate.

[3] = HPLC quantification of compound remaining after storage at 50° C.; format: physicochemical; conditions: HPLC
Protocol: Briefly, formulations containing either LAE or any of the 26 compounds and standards are diluted into a solution of 50% acetonitrile and 50% water. They are evaluated on an Agilent HPLC using a Zorbax ion exchange column. In the method, 10 uL of the sample is withdrawn and ran through the HPLC with a 40% potassium phosphate (molarity at pH 3.0) 60% acetonitrile mobile phase. […] The molecule peak is auto integrated using the Online Agilent HPLC software. Comparisons are made to the standard to identify the % of compound remaining following storage.

Molecule	prevention of bacterial attachment in alcohol free full formulations [1]	prevention of bacterial attachment in alcohol-free full formulations [1]	ability to prevent bacterial attachment [1]	preventing bacterial attachment the best [1]	log reduction in S. mutans [2]	also measured
CCCCCCCCCCCC(=O)NC(CCCNC(=N)N)C(=O)NCC (stereo not shown) [Compound 9, [amino({[4-dodecanamido-4-(ethylcarbamoyl)butyl]amino})methylidene]azanium]	Prevent Bacterial Attachment	Prevent Bacterial Attachment	have the ability to prevent bacterial attachment	preventing bacterial attachment the best	do not Result in More than a One Log Reduction in S. mutans	effect of presence of essential oils (EOs) on prevention of bacterial attachment ([1]; 0.15 wt % compound 9, Table 6): has no effect; effect of surfactant on prevention of bacterial attachment ([1]; 0.15 wt % compound 9, Table 6): has a major effect; prevention of bacterial attachment in full formula ([1]; 0.15 wt % in alcohol free base, compositions K-R): Prevents Bacterial Attachment in Full Formula; efficacy at preventing bacterial attachment ([1]; 0.15 wt % in water): demonstrated efficacy at preventing bacterial attachment; prevention of bacterial attachment compared with LAE ([1]; 0.15 wt %, 21.6% alcohol and water-based solution): equally as efficacious as LAE; most effective concentration for prevention of bacterial attachment ([1]; compound 9 in simple water solution (Table 1 compositions)): 0.3 wt %; concentration effect on prevention of bacterial attachment ([1]; compound 9 in water, 0.01-0.4 w/w %): dose dependent response; % of molecule maintained out to 8 weeks when stored at 50° C. ([3]; 8 weeks, 50° C., formulations of Table 7): at least 90%; stability in an alcohol-free formulation ([3]; storage at 50° C.): Maintains Stability
CCCCCCCCCCCCCC(=O)NC(CCCNC(=N)N)C(=O)NCC (stereo not shown) [Compound 20, N-(1-(ethylamino)-5-guanidino-1-oxopentan-2-yl)tetradecanamide]			have the ability to prevent bacterial attachment			
CCCCCCCCNC(=O)C(CCCN)NC(=O)CCCCCCC (stereo not shown) [Compound 19, N-(5-amino-1-(octylamino)-1-oxopentan-2-yl)octanamide]			have the ability to prevent bacterial attachment	preventing bacterial attachment the best		
CCCCCCCCCCCC(=O)NC(CCCCN)C(=O)NCC (stereo not shown) [Compound 11, N-[5-amino-1-(ethylcarbamoyl)pentyl]dodecanamide]	Prevent Bacterial Attachment	Prevent Bacterial Attachment	have the ability to prevent bacterial attachment		do not Result in More than a One Log Reduction in S. mutans	
CCCCCCCCCCCNC(=O)C(CCCN)NC(=O)CCCCCCC (stereo not shown) [Compound 18, N-(5-amino-1-oxo-1-(undecylamino)pentan-2-yl)octanamide]			have the ability to prevent bacterial attachment	preventing bacterial attachment the best		
CCCCCCCCCCCNC(=O)C(CCCNC(=N)N)NC(=O)CCCCCCCCCCC (stereo not shown) [Compound 25, N-(5-guanidino-1-oxo-1-(undecylamino)pentan-2-yl)dodecanamide]			have the ability to prevent bacterial attachment			
CCCCCCCC(=O)NC(CCCNC(=N)N)C(=O)NC (stereo not shown) [Compound 1, [amino({[4-(methylcarbamoyl)-4-octanamidobutyl]amino})methylidene]azanium]	Prevent Bacterial Attachment	Prevent Bacterial Attachment	have the ability to prevent bacterial attachment	preventing bacterial attachment the best	do not Result in More than a One Log Reduction in S. mutans	
[amino({[4-dodecanamido-4-(methylcarbamoyl)butyl]amino})methylidene]azanium [Compound 4]			have the ability to prevent bacterial attachment		do not Result in More than a One Log Reduction in S. mutans	
CCCCCCCCCCCCCCCCCC(=O)NC(CCCNC(=N)N)C(=O)NC (stereo not shown) [Compound 7]					do not Result in More than a One Log Reduction in S. mutans	
CCCCCCCCCCCC(=O)NC(CCCN)C(=O)NCC (stereo not shown) [Compound 12, N-[4-amino-1-(ethylcarbamoyl)butyl]dodecanamide]	Prevent Bacterial Attachment	Prevent Bacterial Attachment	have the ability to prevent bacterial attachment	preventing bacterial attachment the best	do not Result in More than a One Log Reduction in S. mutans	
CCCCCCCC(=O)NC(CCCNC(=N)N)C(=O)NCCCCCC (stereo not shown) [Compound 3, [amino({[4-(hexylcarbamoyl)-4-octanamidobutyl]amino})methylidene]azanium]	Prevent Bacterial Attachment	Prevent Bacterial Attachment	have the ability to prevent bacterial attachment	preventing bacterial attachment the best	do not Result in More than a One Log Reduction in S. mutans	
CCCCCCCCNC(=O)C(CCCNC(=N)N)NC(=O)CCCCCCC (stereo not shown) [Compound 21, N-(5-guanidino-1-(octylamino)-1-oxopentan-2-yl)octanamide]			have the ability to prevent bacterial attachment	preventing bacterial attachment the best		
CCCCCCCCCCCC(=O)NC(COP(=O)(O)O)C(=O)NCC (stereo not shown) [Compound 16, 2-dodecanamido-3-(ethylamino)-3-oxopropyl dihydrogen phosphate]			have the ability to prevent bacterial attachment			
CCCCCCCCCCCC(=O)NC(CCCN)C(=O)NCCCCCC (stereo not shown) [Compound 17, N-(5-amino-1-(hexylamino)-1-oxopentan-2-yl)dodecanamide]			have the ability to prevent bacterial attachment	preventing bacterial attachment the best		
CCCCCCCCCCCC(=O)NC(CCCNC(=N)N)C(=O)NC (stereo not shown) [Compound 6]	Prevent Bacterial Attachment	Prevent Bacterial Attachment	have the ability to prevent bacterial attachment	preventing bacterial attachment the best	do not Result in More than a One Log Reduction in S. mutans	
CCCCCCCCCCCNC(=O)C(CCCNC(=N)N)NC(=O)CCCCCCC (stereo not shown) [Compound 26, N-(5-guanidino-1-oxo-1-(undecylamino)pentan-2-yl)octanamide]			have the ability to prevent bacterial attachment	preventing bacterial attachment the best		
CCCCCCCCCCCC(=O)NC(CCCNC(=N)N)C(=O)NCCCCCCCC (stereo not shown) [Compound 22, N-(5-guanidino-1-(octylamino)-1-oxopentan-2-yl)dodecanamide]			have the ability to prevent bacterial attachment	preventing bacterial attachment the best		
CCCCCCCCCC(=O)NC(CCCNC(=N)N)C(=O)NCC (stereo not shown) [Compound 24, N-(1-(ethylamino)-5-guanidino-1-oxopentan-2-yl)decanamide]			have the ability to prevent bacterial attachment			
CCCCCCCCCCCC(=O)NC(CCCNC(=N)N)C(=O)NCCCCCCCCCC (stereo not shown) [Compound 23, N-(1-(decylamino)-5-guanidino-1-oxopentan-2-yl)dodecanamide]			have the ability to prevent bacterial attachment			

Source: patent US11820729B2 (Johnson & Johnson Consumer Inc., priority 2014, dated 2023)
